Results: patent publication US5827837A, “Polyanion anti-inflammatory agents” (priority 1996, dated 1998)
Entries after “also recorded” stand apart in the source; their conditions may differ. Read-outs that look alike come from different tables or passages of the source.

How the values were obtained:
[1] = test system: L-selectin; conditions: cited from earlier work
[2] = test system: P-selectin; conditions: cited from earlier work
[3] = biological target: T1, L-selectin-lg fusion protein (Homo sapiens, UniProt P14151); assay: Competition ELISA: binding of L-selectin-Ig to immobilized BSA-sLe^x
T1 construct: Each selectin-lg contains the lectin domain, epidermal growth factor domain, and one (L-selectin-lg), two (P-selectin-lg) or six (E-selectin-lg) complement regulatory repeats; made in house
Excerpt: Selectin-lg fusion proteins are recombinant chimeric molecules containing extracellular regions of selectins coupled to the hinge, CH2, and CH3 regions of human IgG1 (Aruffo, A., et al., Cell, 67:35, 1991; Walz, G., et al., Science, 250:1132, 1990). Each selectin-lg contains the lectin domain, epidermal growth factor domain, and one (L-selectin-lg), two (P-selectin-lg) or six (E-selectin-lg) complement regulatory repeats of the parent molecules. DNAs encoding selectin-Ig inserted in pCDM7 allowed transient expression of recombinant proteins in COS cells as previously described (Seed, B., et al., Proc. Natl. Acad. Sci., U.S.A., 84:3365, 1987; Aruffo, A., Current Protocols In Molecular Biology, eds. Ausubel, F. M., et al, 16:13.1, Greene Publishing Associates and Wiley-lnterscience, New York, N.Y., 1992). These DNAs were also ligated into pNUT (Palmiter, R. D., et al, Cell, 50:435, 1987) for amplification and stable expression in BHK cells. The fusion proteins were affinity purified from culture media using protein A (Pierce Chemical Company, Rockford, Ill.) or protein G (Pharmacia, Piscataway, N.J.) Sepharose, as previously described (Aruffo, A., et al., Cell, 67:35, 1991; Aruffo, A., Current Protocols In Molecular Biology, eds. Ausubel, F. M., et al, supra, 1992). Competition binding ELISAs using P- and E-selectin-lg were performed essentially as described (Nelson, R. M., et al., J. Clin. […] Selectin concentrations were from 10 to 30 nM. […] To increase L-selectin binding, an assay similar to that previously described was used (Foxall, C., et al., J. Cell Biol., 117:895, 1992), in which the L-selectin-lg (10-20 nM) was allowed to form aggregates with HRP-conjugated anti-lg antibody for 30 minutes prior to addition of inositols and incubation on the BSA-sLe^x -coated plate. IC50 values were calculated by fitting binding data to the equation: fraction of maximal binding=IC50 […] using nonlinear least squares analysis software (Origin, Microcal Inc, Northampton, Mass.). InsP6 (dodecasodium salt), InsS6 (hexapotassium salt), myo-inositol 1 monophosphate (cyclohexylammonium salt), and myo-inositol were from Sigma Chemical Company (St. Louis, Mo.). Stock solutions were prepared daily in 0.9% NaCl and sterilized by 0.22 μm filtration. InsP6 solutions were adjusted at pH 7.4 with HCl.
(§1) L-, P-, or E-selectin-lg fusion proteins were incubated for 2-3 hours on microtiter plates coated with the neoglycoprotein BSA-sLe^x, the plates washed, and bound selectin-lg was detected using a peroxidase-conjugated antibody directed against the lg portion and a chromogenic substrate. To determine blocking activity, solution-phase lnsP6 (.circle-solid.), InsS6 (.largecircle.), or inositol (.box-solid.) at the indicated concentrations were added to the solutions containing selectin-Ig fusion proteins prior to transfer to microtiter plates (competition ELISA).

[4] = biological target: T2, P-selectin-lg fusion protein (Homo sapiens, UniProt P16109); assay: Competition ELISA: binding of P-selectin-Ig to immobilized BSA-sLe^x
T2 construct: Each selectin-lg contains the lectin domain, epidermal growth factor domain, and one (L-selectin-lg), two (P-selectin-lg) or six (E-selectin-lg) complement regulatory repeats; made in house
Excerpt: (§2) Selectin-lg fusion proteins are recombinant chimeric molecules containing extracellular regions of selectins coupled to the hinge, CH2, and CH3 regions of human IgG1 (Aruffo, A., et al., Cell, 67:35, 1991; Walz, G., et al., Science, 250:1132, 1990). Each selectin-lg contains the lectin domain, epidermal growth factor domain, and one (L-selectin-lg), two (P-selectin-lg) or six (E-selectin-lg) complement regulatory repeats of the parent molecules. DNAs encoding selectin-Ig inserted in pCDM7 allowed transient expression of recombinant proteins in COS cells as previously described (Seed, B., et al., Proc. Natl. Acad. Sci., U.S.A., 84:3365, 1987; Aruffo, A., Current Protocols In Molecular Biology, eds. Ausubel, F. M., et al, 16:13.1, Greene Publishing Associates and Wiley-lnterscience, New York, N.Y., 1992). These DNAs were also ligated into pNUT (Palmiter, R. D., et al, Cell, 50:435, 1987) for amplification and stable expression in BHK cells. The fusion proteins were affinity purified from culture media using protein A (Pierce Chemical Company, Rockford, Ill.) or protein G (Pharmacia, Piscataway, N.J.) Sepharose, as previously described (Aruffo, A., et al., Cell, 67:35, 1991; Aruffo, A., Current Protocols In Molecular Biology, eds. Ausubel, F. M., et al, supra, 1992). Competition binding ELISAs using P- and E-selectin-lg were performed essentially as described (Nelson, R. M., et al., J. Clin. Invest., 91:1157, 1993), except that the assay buffer was 20 mM HEPES pH 7.4, 150 mM NaCl, 2 mM CaCl2, and 0.25 mM thimerosal, containing 10 mg/ml BSA, protease-free, (Miles Inc., Kankakee, Ill.). Selectin concentrations were from 10 to 30 nM. […] To increase L-selectin binding, an assay similar to that previously described was used (Foxall, C., et al., J. Cell Biol., 117:895, 1992), in which the L-selectin-lg (10-20 nM) was allowed to form aggregates with HRP-conjugated anti-lg antibody for 30 minutes prior to addition of inositols and incubation on the BSA-sLe^x -coated plate. IC50 values were calculated by fitting binding data to the equation: fraction of maximal binding=IC50 […] using nonlinear least squares analysis software (Origin, Microcal Inc, Northampton, Mass.). InsP6 (dodecasodium salt), InsS6 (hexapotassium salt), myo-inositol 1 monophosphate (cyclohexylammonium salt), and myo-inositol were from Sigma Chemical Company (St. Louis, Mo.). Stock solutions were prepared daily in 0.9% NaCl and sterilized by 0.22 μm filtration. InsP6 solutions were adjusted at pH 7.4 with HCl.
as §1

[5] = biological target: T3, E-selectin-lg fusion protein (Homo sapiens, UniProt P16581); assay: Competition ELISA: binding of E-selectin-Ig to immobilized BSA-sLe^x
T3 construct: Each selectin-lg contains the lectin domain, epidermal growth factor domain, and one (L-selectin-lg), two (P-selectin-lg) or six (E-selectin-lg) complement regulatory repeats; made in house
Excerpt: as §2, §1

[6] = test system: L-selectin; conditions: cited from earlier work; remark: listed apart in the source
[7] = test system: P-selectin; conditions: cited from earlier work; remark: listed apart in the source
[8] = test system: inflammation; conditions: rodent model; cited from earlier work
[9] = test system: PMN within the peritoneal cavity; assay: Thioglycollate-induced peritoneal inflammation, PMN accumulation; format: in vivo, mice (Balb/c); conditions: mice, 80 μmol/kg in two i.v. injections, 2 experiments
[10] = test system: hemoglobin; conditions: avian erythrocytes; cited from earlier work
[11] = chelator concentration above 1 mM
[12] = up to a concentration of 1 mM in assay buffer

fucoidan
L-selectin interaction / dependent adhesion [1]: L-selectin adhesion can be blocked; also recorded: interact with both P- and L-selectin | P-selectin interaction / dependent adhesion [2]: interact with both P- and L-selectin

O=P(O)(O)OC1[C@H](O)[C@H](O)C(O)[C@H](O)[C@H]1O (some centres unmarked) [InsP1, myo-inositol 1 monophosphate, reference compound]
activity against L-selectin ([3]; selected assays, in vitro): no activity | activity against P-selectin ([4]; selected assays, in vitro): no activity

O=C(O)CN(CCN(CC(=O)O)CC(=O)O)CC(=O)O [EDTA, reference compound]
inhibition profile, L-selectin [3, 11]: same inhibition profile on all three selectins | blocking of L-selectin with chelator [3, 12]: no blocking of any selectin up to a concentration of 1 mM | inhibition profile, P-selectin [4, 11]: same inhibition profile on all three selectins | blocking of P-selectin with chelator [4, 12]: no blocking of any selectin up to a concentration of 1 mM | inhibition profile, E-selectin [5, 11]: same inhibition profile on all three selectins | blocking of E-selectin with chelator [5, 12]: no blocking of any selectin up to a concentration of 1 mM | effect of calcium chelator on L-selectin interaction with sulfatides [6]: largely unaffected | effect of calcium chelator on P-selectin interaction with sulfatides [7]: largely unaffected

CC(=O)N[C@H]1[C@H]([C@H](O)[C@H](O)CO)O[C@@](O[C@H]2[C@@H](O)[C@@H](CO)O[C@@H](O[C@H]3[C@H](O[C@@H]4O[C@@H](C)[C@@H](O)[C@@H](O)[C@@H]4O)[C@@H](NC(C)=O)C(O)O[C@@H]3CO)[C@@H]2O)(C(=O)O)C[C@@H]1O (some centres unmarked) [sLe^x, Neu5Acα2-3Galβ1-4(Fucα1-3)GIcNAc, reference compound]
blocking of L-selectin-Ig binding ([3]; BSA-sLe^x competition ELISA): failed to block L-selectin binding at concentrations up to 1 mM | IC50 ([5]; BSA-sLe^x competition ELISA, solution-phase sLe^x): 510 ± 60 µM

O=P(O)(O)O[C@@H]1[C@@H](O)[C@H](OP(=O)(O)O)[C@@H](OP(=O)(O)O)[C@H](O)[C@@H]1O [L-isomer of Ins1,4,5 P3]
inhibition of L-selectin-Ig binding ([3]; preliminary competition ELISA, up to 700 μM): no inhibition at concentrations up to 700 μM

O=P(O)(O)O[C@@H]1[C@H](OP(=O)(O)O)[C@H](O)[C@@H](O)[C@H](O)[C@H]1OP(=O)(O)O [1,2,6-triphosphate (IP3), 1,2,6-triphosphate]
inhibition of inflammation [8]: modestly inhibit inflammation

heparin
L-selectin interaction / dependent adhesion [1]: interact with both P- and L-selectin | P-selectin interaction / dependent adhesion [2]: interact with both P- and L-selectin

O=P(O)(O)O[C@@H]1[C@@H](O)[C@@H](O)[C@@H](OP(=O)(O)O)[C@H](OP(=O)(O)O)[C@H]1O (relative stereo) [D, L-isomer mixture of Ins1,4,6 P3]
IC50 ([3]; preliminary competition ELISA, single experiment, read-out: IC50, L-selectin-Ig): 230 ± 90 µM

O=P(O)(O)O[C@@H]1[C@@H](OP(=O)(O)O)[C@H](OP(=O)(O)O)[C@H](O)[C@H](OP(=O)(O)O)[C@H]1OP(=O)(O)O [InsP5, inositol pentakisphosphate]
IC50 ([3]; selected assays, in vitro, read-out: IC50, blocking activity against L-selectin): 38 ± 17 µM | IC50 ([4]; selected assays, in vitro, read-out: IC50, blocking activity against P-selectin): 940 ± 130 µM | reduced peritoneal influx of PMN (inhibition) [9]: 48±6% | effect on hemoglobin affinity for oxygen [10]: increasing its affinity for oxygen
